This test has as its target T1, human GluN1/GluN2B NMDA receptors (Homo sapiens, UniProt Q13224).
T1 construct: expressed in transfected cells
Briefly: Cell-based calcium flux (FLIPR) assay on cloned human NR1/NR2B ion channels expressed in mammalian cells (standard and HTS buffer variants). (Calcium assays in cells follow changes in intracellular calcium, usually with a dye or a luminescent sensor.)

Setting [1] is: standard assay buffer (0.5 mM MgCl2 dye loading; 137 mM NaCl, 4 mM KCl assay buffer), human GluN1/GluN2B cells, read-out: NR2B IC50 (μM) standard assay.
Setting [2] is: HTS assay buffer (1.5 mM MgCl2 in dye loading buffer; 150 mM NaCl, 3 mM KCl in assay buffer), human GluN1/GluN2B, read-out: NR2B IC50 (μM) HTS assay.
[3] abbreviates: standard assay buffer (0.5 mM MgCl2 in dye loading buffer; 137 mM NaCl, 4 mM KCl in assay buffer), human GluN1/GluN2B, read-out: NR2B IC50 (μM) standard assay.

One may read the IC50 as the concentration that gives 50% inhibition.

Molecules are shown by their SMILES. Where two headings read alike, the source gives them in different places.
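Further: stable Tet-On inducible cell line, Ca2+ influx triggered by glutamate at about EC40 plus 10 µM glycine, fluorescent dye read-out over 5 min, normalized to control wells.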

T1 sequence (Q13224 27-1484, other chains not shown): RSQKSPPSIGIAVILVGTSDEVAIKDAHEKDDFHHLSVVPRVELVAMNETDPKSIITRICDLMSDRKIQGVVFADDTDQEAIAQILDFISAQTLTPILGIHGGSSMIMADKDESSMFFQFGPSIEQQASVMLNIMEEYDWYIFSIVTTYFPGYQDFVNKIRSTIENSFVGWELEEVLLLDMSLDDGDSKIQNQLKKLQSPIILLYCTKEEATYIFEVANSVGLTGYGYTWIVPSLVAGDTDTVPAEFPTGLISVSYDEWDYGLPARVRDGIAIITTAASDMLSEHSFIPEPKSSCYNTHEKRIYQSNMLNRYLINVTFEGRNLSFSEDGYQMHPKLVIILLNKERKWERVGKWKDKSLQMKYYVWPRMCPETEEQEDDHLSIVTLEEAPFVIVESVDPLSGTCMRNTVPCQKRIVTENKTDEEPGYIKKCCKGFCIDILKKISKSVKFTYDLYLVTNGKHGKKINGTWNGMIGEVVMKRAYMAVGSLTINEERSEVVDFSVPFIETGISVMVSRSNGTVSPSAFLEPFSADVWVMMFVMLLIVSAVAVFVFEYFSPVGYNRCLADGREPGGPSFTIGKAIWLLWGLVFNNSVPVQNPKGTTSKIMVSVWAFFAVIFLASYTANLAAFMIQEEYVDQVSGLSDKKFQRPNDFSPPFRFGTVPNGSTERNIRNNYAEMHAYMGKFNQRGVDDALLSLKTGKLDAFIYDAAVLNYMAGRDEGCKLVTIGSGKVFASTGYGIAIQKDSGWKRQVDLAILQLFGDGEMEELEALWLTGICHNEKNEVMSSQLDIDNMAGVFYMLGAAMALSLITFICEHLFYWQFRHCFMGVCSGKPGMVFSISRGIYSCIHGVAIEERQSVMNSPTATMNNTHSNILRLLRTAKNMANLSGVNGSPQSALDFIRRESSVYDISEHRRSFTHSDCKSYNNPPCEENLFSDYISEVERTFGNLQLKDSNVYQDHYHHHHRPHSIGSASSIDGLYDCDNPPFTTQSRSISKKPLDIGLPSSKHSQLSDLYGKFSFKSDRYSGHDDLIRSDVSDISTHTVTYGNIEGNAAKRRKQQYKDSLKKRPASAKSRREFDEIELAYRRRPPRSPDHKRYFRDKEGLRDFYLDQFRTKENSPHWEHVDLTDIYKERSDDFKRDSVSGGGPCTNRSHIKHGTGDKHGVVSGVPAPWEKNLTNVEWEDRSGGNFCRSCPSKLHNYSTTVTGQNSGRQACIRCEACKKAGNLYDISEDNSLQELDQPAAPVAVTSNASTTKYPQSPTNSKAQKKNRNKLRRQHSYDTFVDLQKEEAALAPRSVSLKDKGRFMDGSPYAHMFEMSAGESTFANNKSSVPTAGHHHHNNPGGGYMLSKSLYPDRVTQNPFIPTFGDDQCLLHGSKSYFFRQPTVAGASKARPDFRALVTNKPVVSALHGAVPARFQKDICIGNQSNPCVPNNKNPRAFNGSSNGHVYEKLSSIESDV

Turning to `O=c1[nH]c2ncc(-c3cccc(C(F)(F)F)c3)cc2n1CCN1CCCCC1` [Example 161, 1-[2-(1-Piperidyl)ethyl]-6-[3-(trifluoromethyl)phenyl]-3H-imidazo[4,5-b]pyridin-2-one], under setting [1], the IC50 came out at 1.43 µM.

Turning to `Cc1c(F)ccc(-c2cnc3c(c2)n(Cc2ncccn2)c(=O)n3C)c1F` [Example 65, 6-(2,4-Difluoro-3-methyl-phenyl)-3-methyl-1-(pyrimidin-2-ylmethyl)imidazo[4,5-b]pyridin-2-one], under setting [1], the half-inhibitory concentration (IC50) was 0.81 µM.

Turning to `Cc1ncc(-c2cnc3c(c2)n(CC(=O)N2CCC2)c(=O)n3C)s1` [Example 112, 1-[2-(Azetidin-1-yl)-2-oxo-ethyl]-3-methyl-6-(2-methylthiazol-5-yl)imidazo[4,5-b]pyridin-2-one], the IC50 under setting [1] was found to be 5.1 µM.

As for `COc1ccc(Cn2c(=O)[nH]c3ncc(-c4cc(F)cc(F)c4)cc32)cc1` [Example 508, 6-(3,5-Difluorophenyl)-1-[(4-methoxyphenyl)methyl]-3H-imidazo[4,5-b]pyridin-2-one], the IC50 under setting [2] came out at 0.463 µM.

As to `Cc1cc(-c2cnc3c(c2)n(CC(=O)N(C)C)c(=O)n3C)ccc1F` [Example 420, 2-[6-(4-Fuoro-3-methyl-phenyl)-3-methyl-2-oxo-imidazo[4,5-b]pyridin-1-yl]-N,N-dimethyl-acetamide], the IC50 under setting [3] was 0.017 µM.

Take `O=c1[nH]c2ncc(-c3cccc(C(F)(F)F)c3)cc2n1CCN1CCC1` [Example 17, 1-[2-(Azetidin-1-yl)ethyl]-6-[3-(trifluoromethyl)phenyl]-3H-imidazo[4,5-b]pyridin-2-one]: under setting [1], the IC50 turned out to be 0.146 µM.

As for `COc1ccc(-c2cnc3[nH]c(=O)n(CC(=O)N4CCCC4)c3c2)cc1` [Example 35, 6-(4-Methoxyphenyl)-1-(2-oxo-2-pyrrolidin-1-yl-ethyl)-3H-imidazo[4,5-b]pyridin-2-one], for the setting “HTS assay buffer (1.5 mM MgCl2 dye loading; 150 mM NaCl, 3 mM KCl assay buffer), human GluN1/GluN2B cells, read-out: NR2B IC50 (μM) HTS assay”, the half-maximal inhibitory concentration (IC50) stood at 2.14 µM.

Turning to `Cn1c(=O)n(Cc2cccnn2)c2cc(-c3csc(C(F)(F)F)c3)cnc21` [Example 103, 3-Methyl-1-(pyridazin-3-ylmethyl)-6-[5-(trifluoromethyl)-3-thienyl]imidazo[4,5-b]pyridin-2-one], the IC50 under setting [1] was 0.017 µM.

For `O=c1[nH]c2ncc(-c3ccc(F)c(F)c3)cc2n1Cc1ccccn1` [Example 279, 6-(3,4-Difluorophenyl)-1-(2-pyridylmethyl)-3H-imidazo[4,5-b]pyridin-2-one], under setting [1], the IC50 was found to be 5.03 µM.

For the molecule `O=C(Cn1c(=O)[nH]c2ncc(-c3cccc(C(F)(F)F)c3)cc21)N1CCOCC1` [Example 204, 1-(2-Morpholino-2-oxo-ethyl)-6-[3-(trifluoromethyl)phenyl]-3H-imidazo[4,5-b]pyridin-2-one], the half-inhibitory concentration (IC50) under setting [1] came out at 0.037 µM.

In the case of `Cc1ccc(-c2cnc3c(c2)n(Cc2csnn2)c(=O)n3C)s1` [Example 556, 3-Methyl-6-(5-methyl-2-thienyl)-1-(thiadiazol-4-ylmethyl)imidazo[4,5-b]pyridin-2-one], the IC50 under setting [3] turned out to be 0.363 µM.

Consider `O=c1[nH]c2ncc(-c3cccc(C(F)(F)F)c3)cc2n1CCN1CC(F)C1` [Example 163, 1-[2-(3-Fluoroazetidin-1-yl)ethyl]-6-[3-(trifluoromethyl)phenyl]-3H-imidazo[4,5-b]pyridin-2-one], for which, under setting [1], the IC50 came out at 0.246 µM.

Turning to `Cc1c(F)ccc(-c2cnc3c(c2)n(CC(=O)N2CC(F)(F)C2)c(=O)n3C)c1F` [Example 414, 1-[2-(3,3-Difluoroazetidin-1-yl)-2-oxo-ethyl]-6-(2,4-difluoro-3-methyl-phenyl)-3-methyl-imidazo[4,5-b]pyridin-2-one], the IC50 under setting [3] amounted to 0.013 µM.

For `O=C(Cn1c(=O)[nH]c2ncc(-c3cccc(C(F)(F)F)c3)cc21)N1CC(F)(F)C1` [Example 194, 1-[2-(3,3-Difluoroazetidin-1-yl)-2-oxo-ethyl]-6-[3-(trifluoromethyl)phenyl]-3H-imidazo[4,5-b]pyridin-2-one], the IC50 under setting [1] is 0.047 µM.

For the molecule `Cn1c(=O)n(Cc2cccnn2)c2cc(-c3ccc(F)c(C(F)(F)F)c3)cnc21` [Example 382, 6-[4-Fluoro-3-(trifluoromethyl)phenyl]-3-methyl-1-(pyridazin-3-ylmethyl)imidazo[4,5-b]pyridin-2-one], the IC50 under setting [3] stood at 0.016 µM.

On to `Cc1c(-c2cnc3[nH]c(=O)n(CCN4CC(F)C4)c3c2)cccc1C(F)(F)F` [Example 181, 1-[2-(3-Fluoroazetidin-1-yl)ethyl]-6-[2-methyl-3-(trifluoromethyl)phenyl]-3H-imidazo[4,5-b]pyridin-2-one], for which the IC50 under setting [1] was 9.35 µM.

Consider `CN(C)C(=O)Cn1c(=O)n(C)c2ncc(-c3ccc(F)s3)cc21` [Example 82, 2-[6-(5-Fluoro-2-thienyl)-3-methyl-2-oxo-imidazo[4,5-b]pyridin-1-yl]-N,N-dimethyl-acetamide], for which the IC50 under setting [1] was 0.154 µM.

For `CN(C)C(=O)Cn1c(=O)n(C)c2ncc(-c3cccc(C(F)F)c3)cc21` [Example 426, 2-[6-[3-(Difluoromethyl)phenyl]-3-methyl-2-oxo-imidazo[4,5-b]pyridin-1-yl]-N,N-dimethyl-acetamide], the IC50 under setting [3] was 0.019 µM.

For `CCOc1ccc(F)cc1-c1cnc2[nH]c(=O)n(CC(=O)NCCOC)c2c1` [Example 443, 2-[6-(2-Ethoxy-5-fluoro-phenyl)-2-oxo-3H-imidazo[4,5-b]pyridin-1-yl]-N-(2-methoxyethyl)acetamide], the IC50 under setting [2] came to 1.32 µM.

For `Cn1c(=O)n(CC(=O)N2CCC2)c2cc(-c3ccc(C4CC4)s3)cnc21` [Example 105, 1-[2-(Azetidin-1-yl)-2-oxo-ethyl]-6-(5-cyclopropyl-2-thienyl)-3-methyl-imidazo[4,5-b]pyridin-2-one], the half-inhibitory concentration (IC50) under setting [1] was determined as 0.081 µM.

As to `CCOc1ccc(F)cc1-c1cnc2[nH]c(=O)n(Cc3cc(C)on3)c2c1` [Example 521, 6-(2-Ethoxy-5-fluoro-phenyl)-1-[(5-methylisoxazol-3-yl)methyl]-3H-imidazo[4,5-b]pyridin-2-one], under setting [3], the IC50 came to 0.132 µM.

For `Cn1cc(Cn2c(=O)[nH]c3ncc(-c4ccc(F)cc4)cc32)nn1` [Example 142, 6-(4-Fluorophenyl)-1-[(1-methyltriazol-4-yl)methyl]-3H-imidazo[4,5-b]pyridin-2-one], the concentration for half-maximal inhibition (IC50) under setting [1] was 0.208 µM.

For `Cc1cc(F)ccc1-c1cnc2[nH]c(=O)n(CCN3CC(F)C3)c2c1` [Example 187, 1-[2-(3-Fluoroazetidin-1-yl)ethyl]-6-(4-fluoro-2-methyl-phenyl)-3H-imidazo[4,5-b]pyridin-2-one], the IC50 under setting [1] was 1.19 µM.

Regarding `Cc1ccc(-c2cnc3c(c2)n(CC(=O)N(C)C)c(=O)n3C)s1` [Example 78, N,N-Dimethyl-2-[3-methyl-6-(5-methyl-2-thienyl)-2-oxo-imidazo[4,5-b]pyridin-1-yl]acetamide], the IC50 under setting [1] was found to be 0.043 µM.

On to `COc1cc(F)ccc1-c1cnc2[nH]c(=O)n(CC3CC3)c2c1` [Example 467, 1-(Cyclopropylmethyl)-6-(4-fluoro-2-methoxy-phenyl)-3H-imidazo[4,5-b]pyridin-2-one], for which the IC50 under setting [2] turned out to be 0.305 µM.

For the molecule `Cn1c(=O)n(Cc2cccnc2)c2cc(-c3cccc(C(F)(F)F)c3F)cnc21` [Example 358, 6-[2-Fluoro-3-(trifluoromethyl)phenyl]-3-methyl-1-(3-pyridylmethyl)imidazo[4,5-b]pyridin-2-one], the IC50 under setting [3] is 0.049 µM.

For the molecule `Cc1cc(Cn2c(=O)[nH]c3ncc(-c4cc(F)cc(F)c4)cc32)no1` [Example 523, 6-(3,5-Difluorophenyl)-1-[(5-methylisoxazol-3-yl)methyl]-3H-imidazo[4,5-b]pyridin-2-one], under setting [3], the IC50 stood at 0.133 µM.

On to `CCOc1ccccc1-c1cnc2[nH]c(=O)n(Cc3ccc(F)cc3)c2c1` [Example 606, 6-(2-Ethoxyphenyl)-1-[(4-fluorophenyl)methyl]-3H-imidazo[4,5-b]pyridin-2-one], for which the IC50 under setting [3] stood at 2.18 µM.

In the case of `Cn1c(=O)n(CC(=O)N2CCC2)c2cc(-c3ccc(C(F)F)s3)cnc21` [Example 93, 1-[2-(Azetidin-1-yl)-2-oxo-ethyl]-6-[5-(difluoromethyl)-2-thienyl]-3-methyl-imidazo[4,5-b]pyridin-2-one], under setting [1], the concentration for half-maximal inhibition (IC50) is 0.006 µM.

As to `Cc1cccc(-c2cnc3c(c2)n(CC(=O)N(C)C)c(=O)n3C)c1F` [Example 427, 2-[6-(2-Fluoro-3-methyl-phenyl)-3-methyl-2-oxo-imidazo[4,5-b]pyridin-1-yl]-N,N-dimethyl-acetamide], the 50% inhibitory concentration (IC50) under setting [3] worked out at 0.041 µM.

Take `O=c1[nH]c2ncc(-c3cccc(C(F)F)c3)cc2n1Cc1ccccn1` [Example 287, 6-[3-(Difluoromethyl)phenyl]-1-(2-pyridylmethyl)-3H-imidazo[4,5-b]pyridin-2-one]: the IC50 under setting [1] was found to be 0.107 µM.

On to `COc1ccc(-c2cnc3[nH]c(=O)n(CC(=O)c4cccs4)c3c2)cc1` [Example 461, 6-(4-Methoxyphenyl)-1-[2-oxo-2-(2-thienyl)ethyl]-3H-imidazo[4,5-b]pyridin-2-one], for which, under setting [3], the IC50 is 0.054 µM.

Regarding `CCOc1ccccc1-c1cnc2[nH]c(=O)n(Cc3cccc(OC)c3)c2c1` [Example 605, 6-(2-Ethoxyphenyl)-1-[(3-methoxyphenyl)methyl]-3H-imidazo[4,5-b]pyridin-2-one], the IC50 under setting [3] is 2.09 µM.

For `O=c1[nH]c2ncc(-c3cccc(C(F)(F)F)c3)cc2n1CCN1CCC(F)CC1` [Example 162, 1-[2-(4-Fluoro-1-piperidyl)ethyl]-6-[3-(trifluoromethyl)phenyl]-3H-imidazo[4,5-b]pyridin-2-one], the IC50 under setting [1] is 1.1 µM.

As for `COc1cc(F)ccc1-c1cnc2[nH]c(=O)n(Cc3ccccc3C#N)c2c1` [Example 490, 2-[[6-(4-Fluoro-2-methoxy-phenyl)-2-oxo-3H-imidazo[4,5-b]pyridin-1-yl]methyl]benzonitrile], under setting [3], the IC50 is 0.046 µM.

Values taken from patent publication US11759455B2, “Substituted 1H-imidazo[4,5-b]pyridin-2(3H)-ones and their use as GLUN2B receptor modulators” (JANSSEN PHARMACEUTICA NV, priority 2016, dated 2023).
